Data taken from patent US11571441B2, “Sideroflexins as mitochondrial serine transporters” (Whitehead Institute for Biomedical Research, priority 2018, dated 2023).
“Also recorded” adds a separate entry of the source. Where two headings read alike, the source gives them in different places.

T1: SFXN1 (Homo sapiens, UniProt Q9H9B4)
T1 construct: made in house
T1 sequence (Q9H9B4 1-322): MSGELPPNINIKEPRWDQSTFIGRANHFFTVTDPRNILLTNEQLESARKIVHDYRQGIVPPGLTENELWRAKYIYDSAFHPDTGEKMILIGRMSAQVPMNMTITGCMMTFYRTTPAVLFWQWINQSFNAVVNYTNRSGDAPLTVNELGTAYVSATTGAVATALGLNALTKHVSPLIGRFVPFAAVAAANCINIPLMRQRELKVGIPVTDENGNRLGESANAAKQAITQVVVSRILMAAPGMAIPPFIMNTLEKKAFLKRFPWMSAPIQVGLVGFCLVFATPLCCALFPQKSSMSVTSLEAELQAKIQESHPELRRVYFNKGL


Legend:
[1] = target: T1, SFXN1; test: In vitro transport assay: [3H] serine/alanine uptake into SFXN1 proteoliposomes; format: biochemical; conditions: for competition of serine uptake by different metabolites (FIG. 3B) / competition of serine uptake by different metabolites (FIG. 3C): after 60 min, SFXN1 liposomes; for competition of serine uptake by different metabolites (FIG. 3C): metabolites at 500 μM; for Km: steady-state kinetic analysis, proteoliposomes
Experimental: (§1) In vitro transport assays were performed as described previously with the following specifications. Flag-SFXN1 was purified from 293T cells stably expressing the protein using FLAG-affinity purification and eluted off beads with FLAG peptide.
(§2) 1% Phosphatidylcholine was added to total E. coli lipids in chloroform, evaporated under nitrogen and desiccated overnight. Dried lipids were hydrated in inside buffer (20 mM MES pH 7, 50 mM NaCl, 20 mM KCl) by freeze-thawing in liquid nitrogen 20× times. Lipids were extruded 6× though a 0.4 μm filter and 15× through a 0.1 μm filter. 15 ug of purified SFXN1 protein were reconstituted into 1.2 mg liposomes using a detergent:lipid ratio of 5:1 with the addition of 1 mM DTT in inside buffer rotating at 4 degree for 1 hour. The proteoliposomes were incubated for 3 sequential rounds with Bio-beads to remove detergent. A liposome-only control was prepared by replacing the protein with inside buffer in the reconstitution reaction. Incorporation of protein into liposomes was assessed using glycerol gradient centrifugation. A buffer containing 20 mM Tris-HCL pH 7.4 and 100 mM NaCl was used as outside buffer in transport reactions.
In vitro transport assays were performed as described previously (43, 44) with the following specifications. FLAG-SFXN1 was purified from HEK-293T cells stably expressing the protein using FLAG-affinity purification and eluted off the beads with the FLAG peptide.
1% Phosphatidylcholine was added to total E. coli lipids in chloroform, evaporated under nitrogen and desiccated overnight. Dried lipids were hydrated in inside buffer (20 mM MES pH 7, 50 mM NaCl, 20 mM KCl) by freeze-thawing in liquid nitrogen 20× times. Lipids were extruded 6× through a 0.4 μm filter and 15× through a 0.1 μm filter. 15 μg of purified SFXN1 protein were reconstituted into 1.2 mg liposomes using a detergent:lipid ratio of 5:1 with the addition of 1 mM DTT in inside buffer rotating at 4° C. for 1 hour. The proteoliposomes were incubated for 3 sequential rounds with Bio-Beads to remove detergent. A liposome-only control was prepared by replacing the protein with inside buffer in the reconstitution reaction. Incorporation of protein into liposomes was assessed using a glycerol gradient centrifugation assay. [3H] […] Different lots of total E. coli lipid extracts were tested and ones that optimally preserved SFXN1 activity were used in experiments.

[2] = tested on: SFXN1/3-null Jurkat cells; test: Cell proliferation assay in glycine-deficient media, formate rescue; format: cell-based, human; conditions: 1 mM formate, cells cultured with it 2 days before the experiment
Experimental: (§3) 10,000 cells per well were seeded into 96 well plates in triplicate. Cell titer glo reagent (Promega) was added to one plate immediately after seeding and luminescence was measured, while a second plate was read-out 4 days after seeding. Number of doublings in 4 days was determined by calculating the log2 fold-change in signal between day 0 and 4. For formate rescue experiments, 1 mM formate was added to cells at time of seeding (Jurkat cells) or cells were cultured in formate-containing media for 1 week prior to the experiment (K562 cells) unless indicated otherwise.
(§4) 10,000 cells per well were seeded into 96-well plates in triplicate. Cell titer glo reagent (Promega) was added to one plate immediately after seeding and luminescence was measured, while a second plate was read-out 4 days after seeding. Number of doublings in 4 days was determined by calculating the log2 fold-change in signal between day 0 and 4. For formate rescue experiments, 1 mM formate was added to media at the time of seeding (Jurkat cells) or cells were cultured in formate-containing media for 1 week prior to the experiment (K562 cells) unless indicated otherwise.

[3] = tested on: SFXN1-null cells (Jurkat and K562); test: Cell proliferation assay (Cell titer glo) in serine-deficient media, formate rescue; format: cell-based, human; conditions: 1 mM formate added, 4 days
Experimental: as §3, §4

[4] = tested on: SFXN1-null Jurkat cells; test: LC-MS metabolite quantification (purine synthesis intermediates, serine, glycine) in SFXN1-null cells; format: cell-based, human; conditions: 1 mM formate, 24 hours in indicated media
Experimental: Quantification of metabolite abundance using LC/MS-based metabolomics was performed and analyzed as previously described. Briefly, Jurkat or K562 cells were seeded at densities of 0.6×10^6 per ml and 0.33×10^6 per ml, respectively. 24 h later, 2×10^6 Jurkat or 1×10^6 K562 cells were harvested, washed once in ice-cold 0.9% saline prepared with LC-MS grade H2O, and extracted with 80% methanol containing 500 nM isotope-labeled amino acids as internal standards (Cambridge Isotope Laboratories). The samples were vortexed for 10 min at 4° C. and spun down at 17,000×g. The supernatant was dried by vacuum centrifugation at 4° C. Samples were stored at −80° C. until analyzed. On the day of analysis, samples were resuspended in 50-100 μL of LC/MS grade water and the insoluble fraction was cleared by centrifugation at 15,000 rpm. The supernatant was then analyzed as previously described by LC/MS (21, 33). […]
Metabolite abundance using LC/MS-based metabolomics was measured and quantified as previously described (15). […] Samples were stored at −80° C. until analyzed. […] The supernatant was then analyzed as previously described by LC-MS (15, 38) Amino acids were normalized to their respective internal standards, purine synthesis intermediates were normalized to the glutamate internal standard. […]

[5] = tested on: SFXN1; test: Amino acid uptake into mitochondria isolated from wild-type or SFXN1-null Jurkat cells; format: biochemical, human; conditions: 0.75 μM [3H] serine or 3 μM [3H] glutamate, 30° C.
Experimental: Mitochondria from wild-type or SFXN1-null Jurkat cells were prepared according to (45). Briefly, cells (˜1 g starting material) were resuspended in low tonicity buffer (100 mM sucrose, 10 mM MOPS pH 7.2, 1 mM EGTA, 0.1% BSA) and disrupted with 20 strokes in a homogenizer containing a pure PTFE head (VWR International) and two strokes with a dounce tissue grinder with tight-fitting pestle (DWK Life Sciences Kimbl Kontes). After adjusting tonicity, lysates were spun twice at 950×g to remove unbroken cells and nuclei, and mitochondria were pelleted by centrifuging at 10,000×g for 10 min. […] Mitochondrial preparations were adjusted for protein content. […] 50 μl samples were collected immediately after start of the reaction and at 1, 2, 3 mins and added to mixed cellulose-ester filters (Fisher Scientific, 0.22 μm pore size) connected to a vacuum line (adapted from (47)). Filters were washed with 3 mL of ice cold TBS and the radioactivity remaining on the filters was measured using a scintillation counter. Blank reaction samples, in which mitochondria were replaced with incubation media, were used to subtract the background. The uptake rate was calculated from the first two minutes of the reaction.

[6] = substrate: N[C@@H](CO)C(=O)O; test: purified protein, by the assay type; format: biochemical, human; conditions: other: steady-state kinetic analysis; proteoliposomes; [3H] serine 1 μM with increasing unlabeled serine
Experimental: as §1
as §2, with “reactions. […]” for “reactions.”
1% Phosphatidylcholine was added to total E. coli lipids in chloroform, evaporated under nitrogen and desiccated overnight. […] Incorporation of protein into liposomes was assessed using a glycerol gradient centrifugation assay. […]

[7] = substrate: C[C@H](N)C(=O)O; test: purified protein, by the assay type; conditions: other: steady-state kinetic analysis; proteoliposomes

Molecule | competition of serine uptake by different metabolites (FIG. 3B) [1] | competition of serine uptake by different metabolites (FIG. 3C) [1] | further results
N[C@H](CO)C(=O)O [D-serine] | able to complete serine uptake | competed with the transport of the labelled serine | 
N[C@@H](CO)C(=O)O [L-serine] | able to complete serine uptake | competed with the transport of the labelled serine | 
C[C@H](N)C(=O)O [alanine] | able to complete serine uptake | competed with the transport of the labelled serine; also recorded: partially competed with serine | Km ([1]; read-out: Km of SFXN1-mediated alanine transport): ~371 µM
O=C(O)CC(O)(CC(=O)O)C(=O)O [citrate] |  | Neither formate nor citrate competed with serine transport; also recorded: does not compete with serine | 
N[C@@H](CS)C(=O)O [cysteine] |  | competed with the transport of the labelled serine; also recorded: partially competed with serine | 
O=CO [formate] | not able to complete serine uptake | Neither formate nor citrate competed with serine transport | rescue of proliferation of SFXN1/3-null cells in the absence of glycine [2]: unable to rescue the growth defect; also recorded: did not reverse their proliferation defect; also recorded: does not rescue proliferation; rescue of proliferation of SFXN1-null cells in serine-deficient media [3]: completely restored growth of SFXN1-null cells; also recorded: completely reversed the slow proliferation; also recorded: rescues growth; accumulation of purine synthesis intermediates (GAR, SAICAR, AICAR) in SFXN1-null cells [4]: completely abolish their accumulation; also recorded: abolished the accumulation of the intermediates; also recorded: reverses the accumulation of purine synthesis intermediates; glycine levels and serine/glycine ratio of SFXN1-null cells [4]: without rescuing the cellular serine and glycine levels; also recorded: did not rescue the defects in glycine levels; also recorded: does not rescue glycine levels and serine/glycine ratio
N[C@@H](CCC(=O)O)C(=O)O [glutamate] |  |  | radioactive amino acid uptake into mitochondria from SFXN1-null cells compared to wild-type [5]: unaffected; also recorded: unchanged
NCC(=O)O [glycine] |  | competed with the transport of the labelled serine; also recorded: partially competed with serine | 
N[C@@H](CO)C(=O)O [serine] |  |  | Km ([1]; [3H] serine 1 μM with increasing unlabeled serine, read-out: Km of SFXN1-mediated serine transport): 170 µM; radioactive amino acid uptake into mitochondria from SFXN1-null cells compared to wild-type [5]: reduced
SFXN1 (Homo sapiens) (protein, made in house) MSGELPPNINIKEPRWDQSTFIGRANHFFTVTDPRNILLTNEQLESARKIVHDYRQGIVPPGLTENELWRAKYIYDSAFHPDTGEKMILIGRMSAQVPMNMTITGCMMTFYRTTPAVLFWQWINQSFNAVVNYTNRSGDAPLTVNELGTAYVSATTGAVATALGLNALTKHVSPLIGRFVPFAAVAAANCINIPLMRQRELKVGIPVTDENGNRLGESANAAKQAITQVVVSRILMAAPGMAIPPFIMNTLEKKAFLKRFPWMSAPIQVGLVGFCLVFATPLCCALFPQKSSMSVTSLEAELQAKIQESHPELRRVYFNKGL |  |  | Km [6]: 170 µM; Vmax [6]: 8.2 pmol/min; Km [7]: 371 µM
